Laboratory results as given in patent US8304452B2, “Radical scavenger and active oxygen eliminating agent” (InBiotex Inc., priority 2005, dated 2012).

Columns and labels:
human LDL [1] = experiment: Effect on the oxidation of LDL in human blood, TBARS (Example 11); type: biochemical; conditions: LDL + 5 μM CuSO4, TBARS; FIG. 11
Method: LDL was prepared by a fractionation and centrifugation method. A fraction at a specific gravity of 1.019 to 1.063 g/mL in serum was defined as human LDL. 5 μM CuSO4, 5-S-GAD (3 to 100 μM) and N-acetyl-carnosine (100 μM to 10 mM) or L-carnosine (10 μM to 10 mM) were added to 0.2 mg/mL LDL, for incubation at 37° C. for 3 hours. After termination of the incubation, TEARS (a substance reactive with thiobarbituric acid) was assayed. Although the TBA reaction is a non-specific reaction, the reaction is used for a method of assaying various lipid peroxide products including malone dialdehyde. An experiment of peroxidation with copper sulfate was done twice (N=2).
An aqueous solution containing 3.75 mg/mL thiobarbituric acid (TBA), 150 mg/mL trichloroacetic acid (TCA) and 0.25 N hydrochloric acid (HCl) was prepared as the TBA reagent, while standard solutions (2, 5, 10, 20, 40 μM) of tetramethoxypropane were prepared. 100 μL each of an LDL sample or a standard solution was added together with 200 μL of the TBA reagent into an Eppendorf tube (1.5 mL), which was then sealed with a cap for thorough mixing. […] The supernatant was assayed of the absorbance (535 nm). Based on the absorbance of the standard solution, a standard curve was prepared. Based on the standard curve, the amount of TBARS in the LDL sample was calculated (in nmol/mg LDL protein) (see FIG. 11).

human LDL [2] = experiment: Lipid peroxide-suppressing action: CuSO4-induced LDL oxidation, TBARS assay (Example 1); type: biochemical; conditions: for Amount of TBARS: 0.2 mg/mL LDL + 5 μM CuSO4, 37° C., 3 hours, mean, n=2
Method: As an action of capturing free group (free radical-scavenging action), the effect of N-β-alanyl-5-S-glutathionyl-3,4-dihydroxyphenylalanine (5-S-GAD) on LDL oxidation was examined. As controls, dopamine and Carnosine (under trade name; N-acetylcarnosine as the ingredient name) used as eye drops for cataract were used. LDL was prepared by a fractionation and centrifugation method. A fraction at a specific gravity of 1.019 to 1.063 g/mL in serum was defined as human LDL. 5 μM CuSO4, 5-S-GAD (3 to 100 μM) and N-acetyl-carnosine (100 μM to 10 mM) or L-carnosine (10 μM to 10 mM) were added to 0.2 mg/mL LDL, for incubation at 37° C. for 3 hours. After termination of the incubation, TBARS (a substance reactive with thiobarbituric acid) was assayed. Although the TBA reaction is a non-specific reaction, the reaction is used for a method of assaying various lipid peroxide products including malone dialdehyde. An experiment of peroxidation with copper sulfate was done twice (N=2). An aqueous solution containing 3.75 mg/mL thiobarbituric acid (TBA), 150 mg/mL trichloroacetic acid (TCA) and 0.25 N hydrochloric acid (HCl) was prepared as the TBA reagent, while tetramethoxypropane was used to prepare standard solutions (2, 5, 10, 20, 40 μM). 100 μL each of an LDL sample or a standard solution was added together with 200 μL of the TBA reagent into an Eppendorf tube (1.5 mL), which was then sealed with a cap for thorough mixing. After heating at 95° C. for 15 minutes, the resulting mixture was cooled in water and centrifuged at 3000 rpm for 5 minutes. The supernatant was assayed of the absorbance (535 nm). Based on the absorbance of the standard solutions, a standard curve was prepared. Based on the standard curve, the amount of TBARS in the LDL sample was calculated (in nmol/mg LDL protein) (mean, n=2, see Table 1 and FIG. 1).

[3] = Superoxide anion-scavenging activity, chemiluminescence, versus N-acetyl-L-carnosine (Example 7); type: biochemical; conditions: lucigenin chemiluminescence; FIG. 7
Method: In a 50 mM carbonate buffer (pH 10) containing 200 μM lucigenin, 100 μM xanthine and 1 mU/mL xanthine oxidase reacted together. The chemiluminescence level depending on the generated superoxide anion (O^2−) was assayed for 10 minutes. The area under the curve indicating the total chemiluminescence over the 10 minutes was calculated. A group to which PBS(−) instead of the test substance solution was added at the same amount as that of the solution, was defined as a control. In the same manner as in Example 3, the effect of 5-S-GAD or N-acetyl-L-carnosine added on the increase of chemiluminescence was examined. The suppressive activity thereof was defined as superoxide anion-scavenging activity (%) (see FIG. 7).

[4] = tested on: chicken egg chorioallantois; experiment: Vascularization-suppressing action, chicken egg chorioallantois (Example 10); type: in vivo; conditions: 10 μL in 1% methylcellulose inside ring, 37° C., 48 hours; FIG. 10
Method: A ring of a 3-mm diameter was placed on a chicken egg chorioallantois on day 5 after oviposition. 10 μL of the test substance diluted with 1% methylcellulose was added inside the ring. After incubation at 37° C. for 48 hours, fat emulsion was injected into the chorioallantois. A part from which the ring was displaced was photographed. Using an image analysis software (Kurabo Industries, Ltd.), the vascular area was measured.

[5] = Superoxide anion-scavenging activity, DMPO spin trapping ESR (Example 8); type: biochemical; conditions: FIG. 8
Method: In a 50 mM phosphate buffer (pH 7.8), 500 μM xanthine and 75 mU/mL xanthine oxidase reacted together. The generated superoxide anion (O^2−) was assayed with a spin trapping agent (DMPO) by the electron spin resonance method (ESR). The resulting signal intensity (I) was normalized with the signal intensity of the inner standard manganese (S). The resulting value was determined as the relative intensity (RI), for comparison between the value in case of the addition of the test substance and the value in case of the addition of PBS. The ESR was measured under the following conditions. MicroWave Powder: 8 mW; Field: 335±5 mT; Scan Time: 2 min; Mod.: 0.1 mT; Amplitude:×125-400; Time Constant: 0.03 sec.

NCCC(=O)N[C@@H](Cc1cc(O)c(O)c(SC[C@H](NC(=O)CC[C@H](N)C(=O)O)C(=O)NCC(=O)O)c1)C(=O)O [5-S-GAD, N-β-alanyl-5-S-glutathionyl-3,4-dihydroxyphenylalanine]
anti-oxidation action compared with N-acetyl-carnosine and L-carnosine (in words) (human LDL [1]): excellent anti-oxidation action compared with N-acetyl-carnosine and L-carnosine | Amount of TBARS (human LDL [2]; 10 μM added): 85.683 nmol/mg LDL protein | Amount of TBARS (human LDL [2]; 30 μM added): 4.290 nmol/mg LDL protein | Amount of TBARS (human LDL [2]; 100 μM added): 2.649 nmol/mg LDL protein | anti-oxidation action, level relative to Carnosine (under trade name) (human LDL [2]; LDL oxidation, TBARS): 10 fold | anti-oxidation action, level relative to dopamine (human LDL [2]; LDL oxidation, TBARS): the same level as that of dopamine | superoxide anion (O^2−)-scavenging action compared with N-acetyl-L-carnosine (in words) [3]: excellent superoxide anion (O^2−)-scavenging action compared with N-acetyl-L-carnosine | suppression of vascularization (vascular area) [4]: suppressed vascularization significantly | superoxide anion (O^2−)-scavenging action compared with TEMPOL (in words) [5]: excellent superoxide anion (O^2−)-scavenging action compared with TEMPOL
